This is an account of results in US8008298B2, “Pyrrolopyrazine kinase inhibitors” (Roche Palo Alto, priority 2008, dated 2011).

Turning to `COc1cc(OC)cc(-c2cnc3[nH]cc(C(=O)C(C)(C)C)c3n2)c1` [Example 146, 1-[2-(3,5-Dimethoxy-phenyl)-5H-pyrrolo[2,3-b]pyrazin-7-yl]-2,2-dimethyl-propan-1-one], the melting point (as a rule, the temperature of the solid-liquid transition) lay in the range of 206.9 to 207.7 °C. The same measure for `COc1cc(-c2cnc3[nH]cc(C(=O)C4(C)CCCC4)c3n2)cc(OC)c1OC` [Example 147, (1-Methyl-cyclopentyl)-[2-(3,4,5-trimethoxy-phenyl)-5H-pyrrolo[2,3-b]pyrazin-7-yl]-methanone]: 244 to 246 °C. The same measure for `CC(C)(C)C(=O)c1c[nH]c2ncc(-c3cccc(CCO)c3)nc12` [Example 148, 1-{2-[3-(2-Hydroxy-ethyl)-phenyl]-5H-pyrrolo[2,3-b]pyrazin-7-yl}-2,2-dimethyl-propan-1-one]: 202 to 203 °C. The same measure for `CC(C)(C)C(=O)c1c[nH]c2ncc(-c3cccc(CN)c3)nc12` [Example 149, 1-[2-(3-Aminomethyl-phenyl)-5H-pyrrolo[2,3-b]pyrazin-7-yl]-2,2-dimethyl-propan-1-one]: 176 to 178 °C; for `CC(C)(C)C(=O)c1c[nH]c2ncc(-c3cccc(CN4CCCCC4)c3)nc12` [Example 150, 2,2-Dimethyl-1-[2-(3-piperidin-1-ylmethyl-phenyl)-5H-pyrrolo[2,3-b]pyrazin-7-yl]-propan-1-one]: 176 to 177 °C. `CC(C)(C)C(=O)c1c[nH]c2ncc(-c3ccccc3O)nc12` [Example 152, 1-[2-(2-Hydroxy-phenyl)-5H-pyrrolo[2,3-b]pyrazin-7-yl]-2,2-dimethyl-propan-1-one] displayed a melting point of 282 to 283 °C. The same measure for `CC1(C(=O)c2c[nH]c3ncc(-c4cccc(N5CCOCC5)c4)nc23)CCCCC1` [Example 153, (1-Methyl-cyclohexyl)-[2-(3-morpholin-4-yl-phenyl)-5H-pyrrolo[2,3-b]pyrazin-7-yl]-methanone]: 208 to 209 °C; for `Cc1nnc(-c2cccc(-c3cnc4[nH]cc(C(=O)C5(C)CCCCC5)c4n3)c2)o1` [Example 155, (1-Methyl-cyclohexyl)-{2-[3-(5-methyl-[1,3,4]oxadiazol-2-yl)-phenyl]-5H-pyrrolo[2,3-b]pyrazin-7-yl}-methanone]: 234 to 236 °C; for `CC1(C(=O)c2c[nH]c3ncc(-c4cccc(CCCO)c4)nc23)CCCCC1` [Example 156, {2-[3-(3-Hydroxy-propyl)-phenyl]-5H-pyrrolo[2,3-b]pyrazin-7-yl}-(1-methyl-cyclohexyl)-methanone]: 80 to 83 °C.

Turning to `COc1cccc(-c2cnc3[nH]cc(C(=O)C4(C)CCCCC4)c3n2)c1` [Example 157, [2-(3-Methoxy-phenyl)-5H-pyrrolo[2,3-b]pyrazin-7-yl]-(1-methyl-cyclohexyl)-methanone], the melting point is 173 to 175 °C. The same measure for `CN(C)c1ccc(-c2cnc3[nH]cc(C(=O)C4(C)CCCCC4)c3n2)cc1` [Example 158, [2-(4-Dimethylamino-phenyl)-5H-pyrrolo[2,3-b]pyrazin-7-yl]-(1-methyl-cyclohexyl)-methanone]: 272 to 274 °C. The same measure for `CC1(C(=O)c2c[nH]c3ncc(-c4cccc(N5CCCC5)c4)nc23)CCCCCC1` [Example 160, (1-Methyl-cycloheptyl)-[2-(3-pyrrolidin-1-yl-phenyl)-5H-pyrrolo[2,3-b]pyrazin-7-yl]-methanone]: 192 to 193 °C.

`O=C(c1c[nH]c2ncc(Br)nc12)C12CC3CC(CC(C3)C1)C2` [Example 161, Adamantan-1-yl-(2-bromo-5H-pyrrolo[2,3-b]pyrazin-7-yl)-methanone] yielded a melting point of 279 to 280 °C.

The compound `COc1cc(-c2cnc3[nH]cc(C(=O)C45CC6CC(CC(C6)C4)C5)c3n2)cc(OC)c1OC` [Example 162, Adamantan-1-yl-[2-(3,4,5-trimethoxy-phenyl)-5H-pyrrolo[2,3-b]pyrazin-7-yl]-methanone] displayed a melting point of 267 to 268 °C. The same measure for `COc1cc(-c2cnc3[nH]cc(C(=O)C(C)(C)CO)c3n2)cc(OC)c1OC` [Example 165, 3-hydroxy-2,2-dimethyl-1-[2-(3,4,5-trimethoxy-phenyl)-5H-pyrrolo[2,3-b]pyrazin-7-yl]-propan-1-one]: 227 to 229 °C; for `CC1(C(=O)c2c[nH]c3ncc(Br)nc23)CCCC1` [Example 166, (2-Bromo-5H-pyrrolo[2,3-b]pyrazin-7-yl)-(1-methyl-cyclopentyl)-methanone]: 206.9 to 207.9 °C; for `CC1(C(=O)c2c[nH]c3ncc(-c4cccc(N5CCCC5)c4)nc23)CCCC1` [Example 167, (1-Methyl-cyclopentyl)-[2-(3-pyrrolidin-1-yl-phenyl)-5H-pyrrolo[2,3-b]pyrazin-7-yl]-methanone]: 242 to 243 °C. The same measure for `COc1cc(-c2cnc3[nH]cc(C(=O)C4(C)CCCC(C)C4)c3n2)cc(OC)c1OC` (stereo not shown) [Example 169, (1,3-Dimethyl-cyclohexyl)-[2-(3,4,5-trimethoxy-phenyl)-5H-pyrrolo[2,3-b]pyrazin-7-yl]-methanone]: 229 to 231 °C; for `CN1CCN(c2ccc(-c3cnc4[nH]cc(C(=O)C5(C)CCCCC5)c4n3)cc2)CC1` [Example 170, (1-Methyl-cyclohexyl)-{2-[4-(4-methyl-piperazin-1-yl)-phenyl]-5H-pyrrolo[2,3-b]pyrazin-7-yl}-methanone]: 225 to 226 °C. The same measure for `CNc1ccc(-c2cnc3[nH]cc(C(=O)C4(C)CCCCC4)c3n2)cc1` [Example 171, [2-(4-Methylamino-phenyl)-5H-pyrrolo[2,3-b]pyrazin-7-yl]-(1-methyl-cyclohexyl)-methanone]: 273 to 275 °C; for `CC1(C(=O)c2c[nH]c3ncc(-c4ccc(N5CCOCC5)cc4)nc23)CCCCC1` [Example 172, (1-Methyl-cyclohexyl)-[2-(4-morpholin-4-yl-phenyl)-5H-pyrrolo[2,3-b]pyrazin-7-yl]-methanone]: 233 to 235 °C; for `CCN(CC)c1ccc(-c2cnc3[nH]cc(C(=O)C4(C)CCCCC4)c3n2)cc1` [Example 173, [2-(4-Diethylamino-phenyl)-5H-pyrrolo[2,3-b]pyrazin-7-yl]-(1-methyl-cyclohexyl)-methanone]: 211 to 213 °C.

The compound `CC1(C(=O)c2c[nH]c3ncc(-c4ccc(N5CCCCC5)cc4)nc23)CCCCC1` [Example 174, (1-Methyl-cyclohexyl)-[2-(4-piperidin-1-yl-phenyl)-5H-pyrrolo[2,3-b]pyrazin-7-yl]-methanone] displayed a melting point of 234 to 236 °C. For the compound `CC(C)(C)OC(=O)N1CCN(c2cccc(-c3cnc4[nH]cc(C(=O)C5(C)CCCCC5)c4n3)c2)CC1` [Example 175, 4-{3-[7-(1-Methyl-cyclohexanecarbonyl)-5H-pyrrolo[2,3-b]pyrazin-2-yl]-phenyl}-piperazine-1-carboxylic acid tert-butyl ester], the melting point lay within 212 to 213 °C. The same measure for `CC1(C(=O)c2c[nH]c3ncc(-c4cccc(N5CCN(C(=O)CC#N)CC5)c4)nc23)CCCCC1` [Example 178, 3-(4-{3-[7-(1-Methyl-cyclohexanecarbonyl)-5H-pyrrolo[2,3-b]pyrazin-2-yl]-phenyl}-piperazin-1-yl)-3-oxo-propionitrile]: 214 to 216 °C.
